We go through two compounds from patent publication US9909107B2, “Brassica AHAS genes and gene alleles that provide resistance to imidazolinone herbicides” (priority 2004, dated 2018).

Structures are written as SMILES. Values joined by “and” are separate entries in the source; they are usually repeats but may differ in a detail not shown here. Equal entries are not always repeated.

Assay [1] concerns AHAS enzyme in leaf discs of Susceptible check (B. juncea variety 'Arid'). The assay is described as follows: AHAS activity assay of leaf discs, susceptible check. Format: biochemical, Brassica juncea. As to the method:
(§1) Leaf discs were removed from seedling leaves of J04E-0044 and subjected to an assay of AHAS activity, as described by Singh et al. (Anal. Biochem. 171: 173-179, 1988). The assay measures AHAS activity by estimating the amount of product, acetolactate, after conversion by decarboxylation in the presence of acid to acetoin. The assay compares the AHAS activity in two leaf discs. The control leaf disc was incubated in 10 mM phosphate buffer (pH 6.0) containing 50 mM pyruvate, 500 uM cyclopropane dicarboxylic acid (CPCA), 10% M&S salts and 0.5% alanine. The other leaf disc was in the same buffer in the presence of 2.5 uM imazamox, an imidazolinone herbicide. The herbicide normally binds to the AHAS enzyme and inhibits activity. The incubations were carried out at 22° C. for 16 hrs followed by measuring the absorbance at A530 nm. A completely herbicide susceptible plant will have an AHAS activity level near zero when exposed to an inhibitory herbicide, while a tolerant plant will have AHAS activity nearly equal to that of the control. A plant with a mutated AHAS gene in one genome but not the other will have intermediate AHAS activity in the present of enzyme inhibitor. The procedure was modified to include the addition of cydopropane dicarboxylic acid (CPCA), which prevents the further conversion of acetolactate to valine and leucine. In addition to an imidazolinone herbicide as an inhibitor, a sulfonylurea herbicide (chlorsulfuron) was also used on separate leaf discs to test for cross-tolerance in the same way except that 0.2 uM chlorsulfuron was used instead of 2.5 uM imazamox. In this table, the line PM1 is a B. napus variety with a mutation affecting the AHAS1 gene in the C genome only and PM2 is a B. napus variety with a mutation in the AHAS3 gene, located in the A genome. Susceptible check is a commercial B. juncea variety.

In assay [2] the target is T1, AHAS enzyme in leaf discs of PM1 (mutation affecting the AHAS1 gene in the C genome) (Brassica napus, UniProt P27818, S638N).
T1 construct: Relative AHAS activity of leaf discs exposed; from tissue; host or cells: leaf discs of B. napus line PM1
T1 sequence (P27818 83-655 S638N): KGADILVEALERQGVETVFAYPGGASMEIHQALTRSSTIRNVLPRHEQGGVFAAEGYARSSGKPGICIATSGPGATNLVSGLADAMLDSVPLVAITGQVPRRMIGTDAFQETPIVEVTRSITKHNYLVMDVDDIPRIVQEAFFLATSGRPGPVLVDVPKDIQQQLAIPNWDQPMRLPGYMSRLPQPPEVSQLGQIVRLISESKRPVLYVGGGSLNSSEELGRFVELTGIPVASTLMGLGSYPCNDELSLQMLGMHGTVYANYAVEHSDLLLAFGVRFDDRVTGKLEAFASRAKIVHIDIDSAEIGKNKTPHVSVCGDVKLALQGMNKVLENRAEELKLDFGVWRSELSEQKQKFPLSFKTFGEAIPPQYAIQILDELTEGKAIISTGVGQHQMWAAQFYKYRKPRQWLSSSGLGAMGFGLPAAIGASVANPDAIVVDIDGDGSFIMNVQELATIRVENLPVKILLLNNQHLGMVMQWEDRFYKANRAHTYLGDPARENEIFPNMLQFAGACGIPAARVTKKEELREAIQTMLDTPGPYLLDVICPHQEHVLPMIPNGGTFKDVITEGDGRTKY
The assay is described as follows: AHAS activity assay of leaf discs, line PM1. Format: biochemical. The following applies: for tolerance provided by the mutation (in words): PM1 mutation. As for the experimental part: as §1

Assay [3] concerns AHAS enzyme in leaf discs of J04E-0044 (BjAHAS-bR mutant allele). The assay is described as follows: AHAS activity assay of leaf discs, line J04E-0044. Format: biochemical, Brassica juncea. The following applies: for tolerance provided by the mutation (in words): mutation in B. juncea variety J04E-0044. As for the experimental part:
as §1

In assay [4] the target is T2, AHAS enzyme in leaf discs of PM2 (mutation in the AHAS3 gene, A genome) (Brassica napus, UniProt P27819, W556L).
T2 construct: Relative AHAS activity of leaf discs exposed; from tissue; host or cells: leaf discs of B. napus line PM2
T2 sequence (P27819 70-652 W556L): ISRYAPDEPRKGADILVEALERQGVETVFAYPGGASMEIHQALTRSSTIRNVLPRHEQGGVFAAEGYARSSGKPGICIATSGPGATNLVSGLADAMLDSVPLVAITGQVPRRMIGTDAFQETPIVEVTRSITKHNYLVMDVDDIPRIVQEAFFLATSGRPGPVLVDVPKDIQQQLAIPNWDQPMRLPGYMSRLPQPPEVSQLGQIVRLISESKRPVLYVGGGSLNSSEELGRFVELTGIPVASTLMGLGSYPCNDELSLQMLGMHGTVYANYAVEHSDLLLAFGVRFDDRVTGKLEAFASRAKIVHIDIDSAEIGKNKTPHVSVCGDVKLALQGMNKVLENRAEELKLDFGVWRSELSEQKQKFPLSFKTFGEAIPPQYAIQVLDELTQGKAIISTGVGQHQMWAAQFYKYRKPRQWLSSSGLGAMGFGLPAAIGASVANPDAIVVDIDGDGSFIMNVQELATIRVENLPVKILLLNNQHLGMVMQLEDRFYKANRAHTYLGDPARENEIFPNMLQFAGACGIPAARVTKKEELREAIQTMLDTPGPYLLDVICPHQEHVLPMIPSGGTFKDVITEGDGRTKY
Kind of assay: AHAS activity assay of leaf discs, line PM2. Format: biochemical. The following applies: for tolerance provided by the mutation (in words): PM2 mutation in the A genome. As for the experimental part: as §1

Consider `COc1nc(C)nc(NC(=O)NS(=O)(=O)c2ccccc2Cl)n1` [chlorsulfuron], for which the “Relative AHAS activity with chlorsulfuron (0-1)” value in assay [1] (Susceptible check leaf disc, 0.2 uM chlorsulfuron vs control disc, 22° C., 16 hrs, scale 0-1) was 0.029. Further, the “tolerance provided by the mutation (in words)” value in assay [2] is given as “no tolerance”; in assay [3], “little tolerance”; in assay [4] it was “tolerance”.

On to `COCc1cnc(C2=NC(C)(C(C)C)C(=O)N2)c(C(=O)O)c1` (stereo not shown) [imidazolinone, imazamox], for which the “AHAS activity in the presence of an imidazolinone herbicide relative to without the inhibitor” value in assay [1] (Arid (susceptible check)) is on record as “less than 2%”. Besides, the “Relative AHAS activity with imidazolinone (0-1)” value was 0.018 in assay [1] (Susceptible check leaf disc, 2.5 uM imazamox vs control disc, 22° C., 16 hrs, scale 0-1); 0.256 and 0.292 and 0.276 in assay [2] (PM1 leaf disc, 2.5 uM imazamox vs control disc, 22° C., 16 hrs, scale 0-1, assays #1-3); 0.703 and 0.793 and 0.919 in assay [3] (J04E-0044 leaf disc, 2.5 uM imazamox vs control disc, 22° C., 16 hrs, scale 0-1, assays #1-3); 0.607 and 0.722 in assay [4] (PM2 leaf disc, 2.5 uM imazamox vs control disc, 22° C., 16 hrs, scale 0-1, assays #1-2). Besides, the “tolerance provided by the mutation (in words)” value in assay [2] was “less tolerance”; in assay [3] it was “tolerance equal to that of PM2”; in assay [4], “tolerance”. The “relative AHAS activity” value in assay [3] (J04E-0044, imidazolinone as AHAS activity inhibitor (Table 1)) is 70% and 79% and 91%.
